Measured values: patent US20190269771A1, “PEPTIDE MIMOTOPE THAT INDUCES AN IMMUNE RESPONSE AGAINST MYCOBACTERIUM TUBERCULOSIS LIPOARABINOMANNAN (LAM)” (priority 2017, published 2019)

What was measured:
[1] = system: rabbit polyclonal anti-LAM antibody; experiment: Peptide ELISA binding assay with rabbit polyclonal anti-LAM antibody; settings: for OD values, binding of rabbit polyclonal anti-LAM antibody by ELISA: coating 10 μg/ml
Method: The ELISA plate wells were coated with by adding each peptide (2 μg in 0.1M NaHCO3, pH 8.6) and incubating overnight at 4° C. After overnight incubation, plates were blocked with BSA (5 mg/ml) for 1 hour at 4° C. For controls, wells were coated with same amount of LAM or BSA. After washing with TBST, diluted 143 anti-LAM antibodies were added to the ELISA plate and incubated at room temperature for 1 hour. Plates were washed with TBST and HRP-conjugated secondary antibodies were added and incubated for 1 hour. After washing 3 times with TBST, 50 μl of the 1-Step™ Ultra TMB-ELISA (Thermo Scientific Co, Ltd) substrates was added in the dark. After color development, 50 μl of 2M sulfuric acid was added to stop the reaction and absorbance was measured at 450 nm.

[2] = system: two monoclonal antibodies against M. tuberculosis lipoarabinomannan (LAM); experiment: Binding of recombinant M13 phages displaying the peptides to the anti-LAM mAbs; settings: peptide displayed on the g3p minor coat protein of recombinant M13 phage
[3] = system: Mouse anti-LAM antibodies; experiment: ELISA with serum from LAM vaccinated mice against various antigens; assay type: binding; settings: Swiss-Webster mice vaccinated with LAM combined with alum; FIG. 2D
Method: To perform ELISAS, 96-well ELISA plates (Greiner Bio-One Catalogue #655-001) were coated with 10 μg of corresponding coating antigens: HS peptide, HSSR peptide, Baculovirus, SG peptide, SGSR peptide, or LAM resuspended in coating buffer (0.1M NaHCO3, pH 8.6). After overnight coating at 4° C., blocking (5% skim milk in PBS) was performed for 1 hour at room temperature. After washing 3 times with washing buffer (0.01% Tween-20 in PBS), mouse serum was added to the appropriate wells and binding proceeded at room temperature for 1 hour. […] After incubating for 1 hour at room temperature, the plate was washed 3 times with TBST and 50 μl 179 of the 1-Step™ Ultra TMB180 ELISA substrate (Thermo Scientific) was added. 50 ul of 2M sulfuric acid was then added to stop the reaction and absorbance was measured at 450 nm.

CISLTEWSMWYRH [Peptide P8, previously published LAM mimotope peptide, reference compound]
detection of KLH-conjugated peptide by rabbit anti-LAM polyclonal antibody above control ([1]; peptides conjugated to KLH vs scramble control, only at the 1:1000 dilution, FIG. 1B-E): could be specifically detected

HSFKWLDSPRLR [HS peptide]
OD values, binding of rabbit polyclonal anti-LAM antibody by ELISA ([1]; HS peptide experiment, FIG. 2B): 0.45
binding affinity with both mAbs [2]: strong binding affinity

KLH alone: keyhole limpet hemocyanin carrier protein [reference compound]
binding by serum from LAM vaccinated mice [3]: not

SGVYKVAYDWQH [SG peptide]
OD values, binding of rabbit polyclonal anti-LAM antibody by ELISA ([1]; SG peptide experiment, FIG. 2C): 0.32
binding affinity with both mAbs [2]: strong binding affinity
